{"source": "PubChem BioAssay AID1963845", "about": "(Molecular Pharmacology Branch, DTP, NCI, 2024)", "system": "429239-143-T-J1-PDC complex spheroid viability", "assay": "Anticancer human tumor 429239-143-T-J1-PDC patient-derived small cell lung carcinoma cell line growth inhibition [POLQ]", "settings": "for IC50: curve of first compound; for viability, T/C: stronger effect = lower value", "summary_of_the_method": "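Three-cell-type spheroids modelling solid tumor plus stroma served as the readout system; POL inhibitors were tested individually and in combination, concentration ranges set by clinical Cmax where known.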", "data": [{"compound": "C=CCn1c(=O)c2cnc(Nc3ccc(N4CCN(C)CC4)cc3)nc2n1-c1cccc(C(C)(C)O)n1", "note": "+ COC1C(OC(N)=O)C(O)C(Oc2ccc3c(O)c(NC(=O)c4ccc(O)c(CC=C(C)C)c4)c(=O)oc3c2C)OC1(C)C;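 further: luminescence signal used as surrogate measure of viable cells; spheroids exposed to compounds for seven days before readout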;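 on viability, T/C: 100% = DMSO vehicle control viability as luminescence relative to vehicle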", "values": [{"measurement": "IC50", "setting": "second compound 0.0316 µM", "result": 0.576, "unit": "µM"}, {"measurement": "IC50", "setting": "second compound 0.1 µM", "result": 0.464, "unit": "µM"}, {"measurement": "IC50", "setting": "second compound 0.316 µM", "result": 0.591, "unit": "µM"}, {"measurement": "IC50", "setting": "second compound 1 µM", "result": 0.58, "unit": "µM"}, {"measurement": "IC50", "setting": "second compound 3.16 µM", "result": 0.632, "unit": "µM"}, {"measurement": "IC50", "setting": "second compound 10 µM", "result": 0.6, "unit": "µM"}, {"measurement": "viability, T/C", "setting": "second compound 0.0316 µM, first compound 0.00316 µM", "result": 105, "unit": "%"}, {"measurement": "viability, T/C", "setting": "second compound 0.0316 µM, first compound 0.01 µM", "result": 93, "unit": "%"}, {"measurement": "viability, T/C", "setting": "second compound 0.0316 µM, first compound 0.0316 µM", "result": 104, "unit": "%"}, {"measurement": "viability, T/C", "setting": "second compound 0.0316 µM, first compound 0.1 µM", "result": 104, "unit": "%"}, {"measurement": "viability, T/C", "setting": "second compound 0.0316 µM, first compound 0.316 µM", "result": 85.7, "unit": "%"}, {"measurement": "viability, T/C", "setting": "second compound 0.0316 µM, first compound 1 µM", "result": 17.1, "unit": "%"}, {"measurement": "viability, T/C", "setting": "second compound 0.1 µM, first compound 0.00316 µM", "result": 92, "unit": "%"}, {"measurement": "viability, T/C", "setting": "second compound 0.1 µM, first compound 0.01 µM", "result": 104, "unit": "%"}, {"measurement": "viability, T/C", "setting": "second compound 0.1 µM, first compound 0.0316 µM", "result": 92.6, "unit": "%"}, {"measurement": "viability, T/C", "setting": "second compound 0.1 µM, first compound 0.1 µM", "result": 105, "unit": "%"}, {"measurement": "viability, T/C", "setting": "second compound 0.1 µM, first compound 0.316 µM", "result": 66, "unit": "%"}, {"measurement": "viability, T/C", "setting": "second compound 0.1 µM, first compound 1 µM", "result": 17.8, "unit": "%"}, {"measurement": "viability, T/C", "setting": "second compound 0.316 µM, first compound 0.00316 µM", "result": 110, "unit": "%"}, {"measurement": "viability, T/C", "setting": "second compound 0.316 µM, first compound 0.01 µM", "result": 88.2, "unit": "%"}, {"measurement": "viability, T/C", "setting": "second compound 0.316 µM, first compound 0.0316 µM", "result": 107, "unit": "%"}, {"measurement": "viability, T/C", "setting": "second compound 0.316 µM, first compound 0.1 µM", "result": 118, "unit": "%"}, {"measurement": "viability, T/C", "setting": "second compound 0.316 µM, first compound 0.316 µM", "result": 82.5, "unit": "%"}, {"measurement": "viability, T/C", "setting": "second compound 0.316 µM, first compound 1 µM", "result": 22.7, "unit": "%"}, {"measurement": "viability, T/C", "setting": "second compound 1 µM, first compound 0.00316 µM", "result": 95.3, "unit": "%"}, {"measurement": "viability, T/C", "setting": "second compound 1 µM, first compound 0.01 µM", "result": 83.5, "unit": "%"}, {"measurement": "viability, T/C", "setting": "second compound 1 µM, first compound 0.0316 µM", "result": 101, "unit": "%"}, {"measurement": "viability, T/C", "setting": "second compound 1 µM, first compound 0.1 µM", "result": 88.7, "unit": "%"}, {"measurement": "viability, T/C", "setting": "second compound 1 µM, first compound 0.316 µM", "result": 82.2, "unit": "%"}, {"measurement": "viability, T/C", "setting": "second compound 1 µM, first compound 1 µM", "result": 21, "unit": "%"}, {"measurement": "viability, T/C", "setting": "second compound 3.16 µM, first compound 0.00316 µM", "result": 98.8, "unit": "%"}, {"measurement": "viability, T/C", "setting": "second compound 3.16 µM, first compound 0.01 µM", "result": 90, "unit": "%"}, {"measurement": "viability, T/C", "setting": "second compound 3.16 µM, first compound 0.0316 µM", "result": 94.2, "unit": "%"}, {"measurement": "viability, T/C", "setting": "second compound 3.16 µM, first compound 0.1 µM", "result": 96.3, "unit": "%"}, {"measurement": "viability, T/C", "setting": "second compound 3.16 µM, first compound 0.316 µM", "result": 97.1, "unit": "%"}, {"measurement": "viability, T/C", "setting": "second compound 3.16 µM, first compound 1 µM", "result": 20, "unit": "%"}, {"measurement": "viability, T/C", "setting": "second compound 10 µM, first compound 0.00316 µM", "result": 91.7, "unit": "%"}, {"measurement": "viability, T/C", "setting": "second compound 10 µM, first compound 0.01 µM", "result": 83.2, "unit": "%"}, {"measurement": "viability, T/C", "setting": "second compound 10 µM, first compound 0.0316 µM", "result": 85.1, "unit": "%"}, {"measurement": "viability, T/C", "setting": "second compound 10 µM, first compound 0.1 µM", "result": 83.7, "unit": "%"}, {"measurement": "viability, T/C", "setting": "second compound 10 µM, first compound 0.316 µM", "result": 84, "unit": "%"}, {"measurement": "viability, T/C", "setting": "second compound 10 µM, first compound 1 µM", "result": 22.8, "unit": "%"}]}]}
